Details: acidic group

Row | SMILES | pKa
1 | Cc1cc(C)nc([N-]S(=O)(=O)c2ccc(O)cc2)n1 | 9.16
2 | Cn1cnc2c(O)[nH+]cnc21 | 1.86
3 | COc1ccc(S)cc1 | 6.76
4 | Cc1cc(C)c2c(O)c(CC(=O)O)oc2c1 | 4.75
5 | CCCc1c(O)n2c3cc(C)ccc3nc(N(C)C)n2c1=O | 6.55
6 | Cc1cc(/N=N/c2ccc(S([NH-])(=O)=O)cc2)cc(C(=O)[O-])c1O | 12.1
7 | O=C(O)c1ccc(I)o1 | 2.94
8 | CCC(CC)C(=O)O[C@H]1O[C@@H](C(=O)O)[C@H](O)[C@@H](O)[C@@H]1O | 3.37
9 | Cc1cccc(SCC(=O)O)c1 | 3.52
10 | O=c1c(O)c1-c1ccc(F)cc1 | 2.07
11 | Oc1ccccc1C1=[NH+]CCN1 | 6.63
12 | OC(O)c1ccccc1 | 12.4
13 | CNC(=O)CS(=O)(=O)NC(N)=O | 4.89
14 | O=C([O-])C[NH+](CC(=O)[O-])Cc1cc(Cl)cc(C[NH+](CC(=O)[O-])CC(=O)[O-])c1O | 6.27
15 | CCCCCCCc1c(-c2ccccc2)nn(-c2ccccc2)c1O | 8
16 | CC[N+](O)(CC)CC | 5.13
17 | Cc1cccnc1/C=N/O | 10.5
18 | Oc1ccc2nccnc2c1 | 7.92
19 | O=c1cccc(O)cc1 | 5.64
20 | O=C(O)C12CCC(O)(CC1)CC2 | 6.33
21 | Cc1cccc([NH3+])c1C(=O)O | 3.2
22 | S=C(Nc1ccc(Cl)cc1)c1cccc(Br)c1 | 10.1
23 | O=C(O)CNC(=O)c1cccc(O)c1O | 3.5
24 | Cc1cc(=O)oc2cccc(O)c12 | 8.26
25 | CC=C=CC(=O)CC(Cc1ccccc1)C(=O)[O-] (stereo not given) | 13.9
26 | CC(C)CNC=S | 12.8

Row | SMILES | pKa
27 | O=C(O)c1cccc[nH+]1 | 1.25
28 | CCCCOC(=O)c1ccc[n+](O)c1 | 0.03
29 | CCCCCCc1c(-c2ccccc2)nn(-c2ccccc2)c1O | 7.4
30 | CC(=O)c1cccc(=O)c(O)c1 | 6.16
31 | Nc1ccc(S(=O)(=O)Nc2ccc(C(=O)O)cc2)cc1 | 4.02
32 | CC(=O)C[N+](=O)[O-] | 5.1
33 | CC[NH+](C)CCCNC(=O)/C=N/O | 8.72
34 | c1cc[n+]2c(c1)C[n+]1ccccc1C2 | 8.12
35 | O=C(O)c1ccc[n+]([O-])c1 | 2.95
36 | C#CC(=O)O | 1.89
37 | Cc1cc2nc[nH]c2cc1C | 12.5
38 | Cc1cccc(C)c1NN=C(C#N)C#N | 6.6
39 | COCC1=C(C(=O)O)CC1 | 4.31
40 | CN(C)C(=O)CC(=O)c1ccncc1 | 7.75
41 | Cc1[nH]c(C(=O)[O-])c(C(=O)O)[nH+]1 | 4.54
42 | Cc1ccc(O)c(CO)c1 | 10.2
43 | Cc1ccc([Se]CC(=O)O)cc1 | 3.86
44 | Oc1cc[nH+]c2cccnc12 | 2.85
45 | Cc1cc(S(=O)(=O)N(CCO)CCO)cc(C)c1O | 8.25
46 | Cn1c(=O)[nH]c2ncn(C)c2c1=O | 8.65
47 | Cc1ccc(S(=O)O)cc1 | 1.82
48 | Oc1nsc2ccccc12 | 7.01
49 | CC(=O)[C@@H]1C[C@H](C(=O)O)C1(C)C | 4.63
50 | O=C(NO)[C@@H]1[C@H](C(=O)NO)[C@@H]2CC[C@H]1O2 | 9.3
51 | C/C=C/C#CC(=O)O | 2.67
52 | C[C@H]1CC[C@H]2[C@H](C)CC[C@@H](C(=O)O)[NH+]2C1 | 2

Row | SMILES | pKa
53 | OC(c1ccccc1)c1ccccn1 (stereo not given) | 12.8
54 | CCc1nc2cc3ccccc3cc2[nH]1 | 12.9
55 | Cc1cc(C(CC(=O)O)c2ccccc2)ccc1O (stereo not given) | 4.67
56 | N#CC(C#N)=C(C#N)Nc1ccc(C(=O)O)cc1 | 4.2
57 | NC(=N\O)/C(N)=N/O | 11.3
58 | Cc1ccc(S(=O)(=O)NCC[NH+](CC(=O)O)CC(=O)O)cc1 | 2.15
59 | Oc1ccccc1C1CCNCCNCCCNCCN1 (stereo not given) | 10.8
60 | N#CC(C#N)=NNc1cccc(O)c1 | 6.45
61 | O=C(CC(=O)C(F)(F)F)c1cccs1 | 6.31
62 | CCCCB(O)O | 10.7
63 | O=C(O)c1cc2cc(Cn3cc[nH+]c3)ccc2o1 | 2.38
64 | O=C(O)/C=C/c1cccc([N+](=O)[O-])c1 | 4.08
65 | Cc1cc(C[NH3+])c(O)c(C[NH3+])c1 | 7
66 | OB1OCc2ccccc21 | 7.38
67 | O=c1ccc2cc(O)c(O)cc2o1 | 7.63
68 | Cc1ccc(C(O)C(C(=O)O)c2ccc(C3CCCCC3)cc2)cc1 (stereo not given) | 4.18
69 | CC(=O)N1CSC[C@H]1C(=O)O | 2.94
70 | O=C(O)[C@H]1C[C@@H]1c1ccc(Cl)cc1 | 4.53
71 | O=C(O)/C=C/C(=O)c1ccccc1 | 3.34
72 | CN(C)C(=S)NCC(=O)O | 3.71
73 | O=C(O)/C=C/c1ccco1 | 4.29
74 | O=c1[nH]c(=O)n(-c2ccccc2)[nH]1 | 4.9
75 | C=C(CCCC)C(=O)O | 4.8
76 | CCc1ccc(OC)c(C(=O)NC[C@H]2CCC[NH+]2CC)c1O | 8.7

Same assay, conditions: basic group

Row | SMILES | pKa
77 | NC(=O)C(N)Cc1c[nH]cn1 (stereo not given) | 7.64
78 | CN1CCCCC1 | 10.1
79 | C=C(C)C(=O)NC(C)CN(C)C (stereo not given) | 8.51
80 | CCSC(=O)c1ccc(Cl)cc1 | -5.02
81 | Cc1cc(-c2ccccc2)nn2c(C[NH+](C)C)cnc12 | 3.18
82 | OC(CN1CCOCC1)C[NH+]1CCOCC1 | 5
83 | CN(C)CC#N | 4.5
84 | Cc1ccno1 | 2.3
85 | CC(N)CCCc1ccccc1 (stereo not given) | 9.99
86 | CCc1cccnn1 | 3.58
87 | c1ccc(Nc2nccs2)cc1 | 4.33
88 | Nc1ccc(Cl)cn1 | 4.83
89 | CN(C)c1ccncc1 | 9.7
90 | CCN(CC)CC[NH+](CC)CC | 6.18
91 | CC(C)[C@H]1CN[C@H](C(=O)[O-])[C@H]1CC(=O)[O-] | 10.6
92 | CCN(CC)CCSC1CCCCC1 | 8.11
93 | CC(=O)NC(Cc1c[nH]cn1)C(=O)[O-] (stereo not given) | 7.11
94 | CNCCC(=O)c1ccccc1 | 9
95 | NCC[NH2+]Cc1ccccc1 | 6.48
96 | COC(=O)c1ccccn1 | 2.21
97 | O=C(Cc1ccccc1Nc1c(Cl)cccc1Cl)OCCCCN1CCOCC1 | 8.4
98 | Oc1ccc2nccnc2c1 | 1.4
99 | Cc1cc([S-])ncn1 | 7.3
100 | CC(C)(CN)C[NH3+] | 7.99

Row | SMILES | pKa
101 | c1[nH]c(Cc2c[nH]c(Cc3[nH]cc(Cc4c[nH]c[nH+]4)[nH+]3)n2)c[nH+]1 | 3.58
102 | CCCN(CCC)CCc1c[nH]c2ccccc12 | 8.6
103 | C/N=C(\C)SC | 7.71
104 | Cn1cnc2ncnc([O-])c21 | 8.8
105 | Nc1c(Cl)cc([N+](=O)[O-])cc1Cl | -2.98
106 | Cc1ccc2c(c1)NCCN2 | 4.97
107 | [SH2+]c1ccc2ncccc2c1 | 3.95
108 | COc1ncnc2c1cnn2C | 2.51
109 | O=C(O)c1cccc[nH+]1 | -0.84
110 | NC(=O)Cc1ccccn1 | 4.34
111 | ClCC1CN2CCC1CC2 (stereo not given) | 10.2
112 | CC1(C)CCCC(C)(C)N1 | 11.2
113 | Nc1ccc2c(c1Br)CCCC2 | 3.05
114 | O=C(O)c1ccc[n+]([O-])c1 | 0.41
115 | CC1=Nc2ccc([N+](=O)[O-])cc2[NH+]=C(C)C1 | 2.2
116 | Cc1cc2nc[nH]c2cc1C | 6.04
117 | Cc1cccc(C)c1NN=C(C#N)C#N | -0.82
118 | C[NH+](C)CCCNc1c2ccccc2nc2c(Cl)ccc([N+](=O)[O-])c12 | 5
119 | CN(C)CCO | 9.36
120 | O=C(CCN1CCOCC1)c1ccccc1 | 6.5
121 | Nc1cccnc1 | 6.08
122 | N/C(CC/C(N)=[NH+]/O)=N\O | 3.11
123 | CCCCC/C(N)=N/N(C)C | 10.4
124 | C[C@H](CCCNCc1ccccc1)[C@H]1CC[C@H]2[C@@H]3[C@H](O)C[C@@H]4C[C@H](O)CC[C@]4(C)[C@H]3CC[C@]12C | 9.07

Row | SMILES | pKa
125 | C=CCN(C)CCCNC(=O)/C=N/[O-] | 9.5
126 | Cn1cnc2c([O-])ncnc21 | 9.11
127 | CN(C)CCCCC(=O)Oc1ccccc1 | 10
128 | CN(C(=O)c1ccccc1)c1ccncc1 | 4.68
129 | O=C(/C=C1/C=CC=CN1)c1ccccc1 | 6.08
130 | NCCCN | 10.6
131 | c1cc2nccnc2cn1 | 2.5
132 | Cc1cc(-c2ccccn2)nn1C | 4.52
133 | CNc1cc[nH+]c([O-])n1 | 4.55
134 | Cn1c(=O)[nH]c2ncn(C)c2c1=O | 0.5
135 | CSc1ccnc2ccccc12 | 5.81
136 | Cc1ncc(CO)c(C)c1OCc1ccccc1 | 5.52
137 | CC1(C)CCC(C2CCC(C)(C)[NH2+]2)N1 (stereo not given) | 6.95
138 | Cc1cc(C)nc(NS(=O)(=O)c2ccc([NH3+])cc2)n1 | -0.89
139 | C[n+]1c([S-])ccnc1[S-] | 6.96
140 | c1ccc(-c2ccc3ncc(CN4CCOCC4)n3n2)cc1 | 6.21
141 | Fc1ccc2[nH]cnc2c1 | 5.11
142 | c1ccc(CNC(CC2CCCCC2)CC2CCCCC2)cc1 | 7.7
143 | c1ccc(-c2nnc(-c3ccccc3)o2)cc1 | 1.96
144 | [S-]c1ccccn1 | 9.89
145 | CCN(CC)Cc1ccccc1OC | 10.2
146 | CCSCCN(CC)CC | 9.03
147 | Cn1cc([O-])nc1N | 13.4
148 | C[NH+](C)C[C@H]1[C@@H]2CC[C@@](C)([C@H]1N)C2(C)C | 6.59

Row | SMILES | pKa
149 | CC[NH+](CC)CCNc1nc(C)cc(Nc2ccc(Cl)cc2)n1 | 6.69
150 | OC(c1ccccc1)c1ccccn1 (stereo not given) | 4.44
151 | CN[C@@H]1[C@@H](C)[C@@H]1NC | 9.13
152 | CCc1nc2cc3ccccc3cc2[nH]1 | 6.14
153 | CNCC(C)CNC | 10.6
154 | COc1ccc2c(c1)NCC[NH2+]2 | 1.93
155 | NC(=N\O)/C(N)=N/O | 2.97
156 | C[n+]1nc(-c2ccccc2)ccc1NCCN1CCOCC1 | 5.31
157 | CC(C)(C)CC(=O)n1cnc(Br)c1 | 4
158 | O=C([O-])[C@H](NCCN[C@@H](C(=O)[O-])c1ccccc1[O-])c1ccccc1[O-] | 12.1
159 | C[C@H](O)[C@H]1CC[C@H]2[C@@H]3CC[C@H]4C[C@H](N)CC[C@]4(C)[C@H]3CC[C@]12C | 9.28
160 | Cc1cc(-c2ccccc2)nn2c(CN3CCOCC3)cnc12 | 6.01
161 | NNC(=O)c1ccccc1[NH3+] | 1.85
162 | c1c[nH]c(Cc2nc(Cc3c[nH]cn3)c[nH]2)n1 | 7.26
163 | C[C@@H]1C[C@H](OC(=O)c2ccccc2)CC(C)(C)N1 | 8.97
164 | Nc1ccc2[nH+]cccc2c1 | 1.63
165 | Nc1ncnc2nn([C@@H]3C[C@@H](O)[C@H](CO)O3)nc12 | 3.1
166 | O=c1[nH]c(=O)n(-c2ccccc2)[nH]1 | -4.1
167 | Cc1ccc(C(C)C)c(OCCN(C)C)c1 | 8.66
168 | O=[N+]([O-])c1ccc2[nH]c(-c3ccccc3)nc2c1 | 2.95
169 | Clc1ccc(/C=C/c2nnnn2-c2ccccc2)cc1 | -2.54
170 | CCc1c(-c2ccccc2)nn(C2CCN(C)CC2)c1[O-] | 9.15
